What all share (experiment): Protein kinase inhibition assay
One experiment has as its target Rsk3(h) (Homo sapiens, UniProt Q15349). Format: biochemical. The following applies: read-out: percent residual activity of Rsk3(h). As to the method: (§1) Certain compounds were tested for activity in protein kinase inhibition assays. All substrates were dissolved and diluted to working stocks in de-ionized water, apart from histone H1 (10× working stock in 20 mM MOPS pH 7.0), PDKtide (10× working stock in 50 mM Tris pH 7.0) ATF2 (which is typically stored at a 20× working stock in 50 mM Tris pH 7.5, 150 mM NaCl, 0.1 mM EGTA, 0.03% Brij-35, 50% glycerol, 1 mM benzamidine, 0.2 mM PMSF and 0.1% R-mercaptoethanol), KKLNRTLSFAEPG (SEQ ID NO:203) and RRRLSFAEPG (SEQ ID NO:204) (50 mM HEPES pH 7.4) and GGEEEEYFELVKKKK (SEQ ID NO:205) (20 mM MOPS pH 7.0). All kinases were pre-diluted to a 10× working concentration prior to addition into the assay. The composition of the dilution buffer for each kinase is detailed below.
(§2) In a final reaction volume of 25 μl, Rsk3 (h) (5-10 mU) is incubated with 8 mM MOPS pH 7.0, 0.2 mM EDTA, 30 μM KKKNRTLSVA (SEQ ID NO:212), 10 mM MgAcetate and [gamma-33P-ATP] (specific activity approx. 500 cpm/pmol, concentration as required). The reaction is initiated by the addition of the MgATP mix. After incubation for 40 minutes at room temperature, the reaction is stopped by the addition of 5 μl of a 3% phosphoric acid solution. 10 μl of the reaction is then spotted onto a P30 filtermat and washed three times for 5 minutes in 75 mM phosphoric acid and once in methanol prior to drying and scintillation counting.

A further experiment addresses KDR(h) (Homo sapiens, UniProt P35968). Format: biochemical. The following applies: read-out: percent residual activity of KDR(h). As to the method:
as §1
as §2, with “KDR” for “Rsk3”, “0.33 mg/ml myelin basic protein,” for “30 μM KKKNRTLSVA (SEQ ID NO:212),”, “[y-33P-ATP]” for “[gamma-33P-ATP]”

The target in a further experiment is EGFR(L861Q)(h) (Homo sapiens, UniProt P00533, L861Q). In kind it is biochemical. As to conditions: read-out: percent residual activity of EGFR(L861Q)(h). As to the method: as §1
as §2, with “EGFR (L861 Q)” for “Rsk3”, “0.1 mg/ml poly(Glu, Tyr) 4:1,” for “30 μM KKKNRTLSVA (SEQ ID NO:212),”, “Filtermat A” for “P30 filtermat”

A further experiment concerns the target FGFR2(h) (Homo sapiens, UniProt P21802). Format: biochemical. As to conditions: read-out: percent residual activity of FGFR2(h). On the procedure:
as §1
as §2, with “FGFR2” for “Rsk3”, “2.5 mM MnCl2, 0.1 mg/ml poly(Glu, Tyr) 4:1,” for “30 μM KKKNRTLSVA (SEQ ID NO:212),”, “Filtermat A” for “P30 filtermat”

In another experiment the target is JNK1α1(h) (Homo sapiens, UniProt P45983). Format: biochemical. The following applies: read-out: percent residual activity of JNK1α1(h). As to the method: as §1
as §2, with “JNK1α” for “Rsk3”, “50” for “8”, “Tris” for “MOPS”, “7.5, 0.1” for “7.0, 0.2”, “EGTA, 0.1% R-mercaptoethanol, 3” for “EDTA, 30”, “ATF2,” for “KKKNRTLSVA (SEQ ID NO:212),”

For a further experiment, the system named is c-RAF(h). Format: biochemical, human. As to conditions: 2.5 μM. As to the method: as §1
as §2, with “c-RAF” for “Rsk3”, “25” for “8”, “Tris” for “MOPS”, “7.5, 0.02” for “7.0, 0.2”, “EGTA, 0.66 mg/ml myelin basic protein,” for “EDTA, 30 μM KKKNRTLSVA (SEQ ID NO:212),”

Molecules are shown by their SMILES.

Sequence of KDR(h) (P35968 20-1356): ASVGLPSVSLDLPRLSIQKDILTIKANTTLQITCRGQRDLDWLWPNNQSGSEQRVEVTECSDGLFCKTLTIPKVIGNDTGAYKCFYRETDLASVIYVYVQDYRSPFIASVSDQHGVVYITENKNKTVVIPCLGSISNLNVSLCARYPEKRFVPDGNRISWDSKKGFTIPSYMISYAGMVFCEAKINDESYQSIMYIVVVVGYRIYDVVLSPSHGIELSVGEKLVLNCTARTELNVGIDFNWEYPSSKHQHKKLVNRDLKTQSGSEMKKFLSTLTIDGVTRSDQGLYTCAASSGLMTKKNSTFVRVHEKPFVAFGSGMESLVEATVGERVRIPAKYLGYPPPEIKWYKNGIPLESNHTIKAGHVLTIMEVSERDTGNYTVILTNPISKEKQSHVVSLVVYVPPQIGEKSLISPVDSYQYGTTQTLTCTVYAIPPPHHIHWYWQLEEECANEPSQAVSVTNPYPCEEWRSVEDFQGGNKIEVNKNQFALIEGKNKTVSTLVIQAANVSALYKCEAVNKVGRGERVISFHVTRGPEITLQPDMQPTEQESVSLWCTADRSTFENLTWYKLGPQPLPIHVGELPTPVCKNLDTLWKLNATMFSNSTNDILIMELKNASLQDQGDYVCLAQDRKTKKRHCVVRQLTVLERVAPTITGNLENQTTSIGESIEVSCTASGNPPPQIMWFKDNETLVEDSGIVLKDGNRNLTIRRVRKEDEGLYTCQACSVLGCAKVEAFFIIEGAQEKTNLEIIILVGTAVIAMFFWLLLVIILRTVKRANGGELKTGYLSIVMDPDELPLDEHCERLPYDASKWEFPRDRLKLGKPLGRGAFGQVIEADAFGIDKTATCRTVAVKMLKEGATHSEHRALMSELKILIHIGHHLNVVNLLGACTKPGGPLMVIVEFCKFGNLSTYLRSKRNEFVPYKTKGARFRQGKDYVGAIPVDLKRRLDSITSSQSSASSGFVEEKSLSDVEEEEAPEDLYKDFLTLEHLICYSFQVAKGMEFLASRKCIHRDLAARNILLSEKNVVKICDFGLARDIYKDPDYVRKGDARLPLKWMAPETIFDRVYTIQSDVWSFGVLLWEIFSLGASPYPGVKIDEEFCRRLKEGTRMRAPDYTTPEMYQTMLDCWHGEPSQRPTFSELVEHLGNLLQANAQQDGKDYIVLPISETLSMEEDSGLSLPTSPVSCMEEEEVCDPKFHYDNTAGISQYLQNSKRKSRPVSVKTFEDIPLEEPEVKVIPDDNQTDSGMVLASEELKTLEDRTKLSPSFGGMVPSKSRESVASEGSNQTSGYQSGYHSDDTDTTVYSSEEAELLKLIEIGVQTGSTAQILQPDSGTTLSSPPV
Sequence of FGFR2(h) (P21802 22-821): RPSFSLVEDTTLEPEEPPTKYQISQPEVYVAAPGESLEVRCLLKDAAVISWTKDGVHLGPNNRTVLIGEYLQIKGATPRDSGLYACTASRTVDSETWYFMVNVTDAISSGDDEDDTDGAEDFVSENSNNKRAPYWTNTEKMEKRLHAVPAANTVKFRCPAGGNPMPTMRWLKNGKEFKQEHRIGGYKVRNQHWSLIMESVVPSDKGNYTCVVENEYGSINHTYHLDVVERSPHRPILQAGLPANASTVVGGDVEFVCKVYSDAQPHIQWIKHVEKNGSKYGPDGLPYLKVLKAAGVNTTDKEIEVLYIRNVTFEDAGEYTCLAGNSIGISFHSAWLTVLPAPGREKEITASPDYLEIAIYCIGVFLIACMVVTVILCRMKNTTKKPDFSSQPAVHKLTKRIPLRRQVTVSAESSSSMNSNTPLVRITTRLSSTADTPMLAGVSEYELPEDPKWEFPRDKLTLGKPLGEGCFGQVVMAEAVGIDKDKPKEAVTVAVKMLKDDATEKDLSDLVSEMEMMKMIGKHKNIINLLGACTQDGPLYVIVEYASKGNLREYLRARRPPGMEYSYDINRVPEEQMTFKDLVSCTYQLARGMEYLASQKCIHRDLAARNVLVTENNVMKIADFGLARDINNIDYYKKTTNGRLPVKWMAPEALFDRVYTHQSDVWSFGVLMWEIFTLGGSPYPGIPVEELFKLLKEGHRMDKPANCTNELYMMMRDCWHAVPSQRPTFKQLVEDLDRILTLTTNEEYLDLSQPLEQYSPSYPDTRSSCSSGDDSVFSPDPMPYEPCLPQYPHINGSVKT
Sequence of EGFR(L861Q)(h) (P00533 25-1210 L861Q): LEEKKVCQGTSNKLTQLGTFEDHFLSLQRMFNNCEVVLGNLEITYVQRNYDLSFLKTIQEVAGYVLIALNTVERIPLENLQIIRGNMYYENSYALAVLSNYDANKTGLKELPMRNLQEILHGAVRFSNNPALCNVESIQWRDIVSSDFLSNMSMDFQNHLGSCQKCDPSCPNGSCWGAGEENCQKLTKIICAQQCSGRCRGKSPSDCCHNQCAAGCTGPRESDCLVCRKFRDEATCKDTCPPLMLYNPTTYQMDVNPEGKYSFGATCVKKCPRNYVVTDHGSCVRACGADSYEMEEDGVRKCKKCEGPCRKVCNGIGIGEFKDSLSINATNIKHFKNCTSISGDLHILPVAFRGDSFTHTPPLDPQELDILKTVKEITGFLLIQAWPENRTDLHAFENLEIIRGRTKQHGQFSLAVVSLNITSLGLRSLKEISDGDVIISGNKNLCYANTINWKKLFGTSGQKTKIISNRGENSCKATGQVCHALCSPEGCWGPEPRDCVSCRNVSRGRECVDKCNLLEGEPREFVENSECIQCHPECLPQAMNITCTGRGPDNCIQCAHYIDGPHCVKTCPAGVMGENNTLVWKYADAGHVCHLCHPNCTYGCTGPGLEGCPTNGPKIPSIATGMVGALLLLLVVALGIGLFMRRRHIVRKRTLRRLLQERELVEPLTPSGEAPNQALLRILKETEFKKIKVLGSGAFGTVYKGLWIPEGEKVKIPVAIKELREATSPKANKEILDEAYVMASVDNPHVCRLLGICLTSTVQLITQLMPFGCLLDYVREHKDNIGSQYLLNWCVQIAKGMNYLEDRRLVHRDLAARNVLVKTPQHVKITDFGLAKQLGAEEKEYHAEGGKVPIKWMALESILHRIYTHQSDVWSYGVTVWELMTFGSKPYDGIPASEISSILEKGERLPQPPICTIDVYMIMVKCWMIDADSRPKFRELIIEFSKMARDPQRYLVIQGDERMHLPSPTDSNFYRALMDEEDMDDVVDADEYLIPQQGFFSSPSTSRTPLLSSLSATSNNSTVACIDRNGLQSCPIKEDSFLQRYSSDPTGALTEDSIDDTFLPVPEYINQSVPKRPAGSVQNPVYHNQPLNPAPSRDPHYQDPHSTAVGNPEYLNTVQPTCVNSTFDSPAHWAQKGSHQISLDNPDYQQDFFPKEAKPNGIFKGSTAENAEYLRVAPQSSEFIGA
Sequence of JNK1α1(h) (P45983 1-384 isoform P45983-2): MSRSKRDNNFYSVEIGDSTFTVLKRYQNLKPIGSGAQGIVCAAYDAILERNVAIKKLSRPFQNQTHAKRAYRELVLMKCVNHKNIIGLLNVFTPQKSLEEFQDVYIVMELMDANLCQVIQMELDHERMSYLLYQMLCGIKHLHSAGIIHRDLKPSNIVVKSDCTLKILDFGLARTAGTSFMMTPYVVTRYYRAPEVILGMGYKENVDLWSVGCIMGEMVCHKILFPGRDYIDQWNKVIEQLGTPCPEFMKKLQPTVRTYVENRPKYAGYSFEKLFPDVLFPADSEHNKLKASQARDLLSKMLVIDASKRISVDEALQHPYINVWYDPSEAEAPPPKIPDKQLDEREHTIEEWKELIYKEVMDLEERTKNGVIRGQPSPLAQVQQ
Sequence of Rsk3(h) (Q15349 whole entry): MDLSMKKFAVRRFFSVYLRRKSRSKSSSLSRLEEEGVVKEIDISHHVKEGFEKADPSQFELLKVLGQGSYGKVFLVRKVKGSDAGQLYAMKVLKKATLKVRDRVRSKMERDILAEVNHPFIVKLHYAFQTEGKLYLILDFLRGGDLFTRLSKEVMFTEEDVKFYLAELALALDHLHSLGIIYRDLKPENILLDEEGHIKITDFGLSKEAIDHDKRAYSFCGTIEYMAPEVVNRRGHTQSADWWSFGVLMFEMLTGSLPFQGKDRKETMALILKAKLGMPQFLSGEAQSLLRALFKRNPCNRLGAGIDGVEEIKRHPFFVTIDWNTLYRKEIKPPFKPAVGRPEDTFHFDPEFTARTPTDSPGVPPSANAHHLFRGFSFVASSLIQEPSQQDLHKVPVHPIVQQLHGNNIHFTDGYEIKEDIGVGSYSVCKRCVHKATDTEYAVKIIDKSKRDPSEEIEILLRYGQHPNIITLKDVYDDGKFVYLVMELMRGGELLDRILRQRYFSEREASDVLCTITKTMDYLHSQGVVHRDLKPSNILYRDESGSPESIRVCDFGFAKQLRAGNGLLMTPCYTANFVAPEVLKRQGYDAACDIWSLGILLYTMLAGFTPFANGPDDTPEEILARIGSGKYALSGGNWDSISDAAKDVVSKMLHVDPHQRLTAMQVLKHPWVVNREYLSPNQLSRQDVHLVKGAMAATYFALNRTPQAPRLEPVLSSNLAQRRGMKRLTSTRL

Consider `CN1CCCC1CCNC(=O)c1cn2c3c(c(N4CCC(c5cnccn5)C4)c(F)cc3c1=O)Oc1cc3ccccc3cc1-2` (stereo not drawn) [Compound A-1], for which the remaining activity at 2.5 µM was found to be 89% on Rsk3(h); 90% at KDR(h); 94% on EGFR(L861Q)(h); 76% on FGFR2(h); 94% at JNK1α1(h). The “percent residual activity of c-RAF(h)” value in the experiment on c-RAF(h) was determined as 100%.

As for `CC(=O)N1CCN(c2ccc3c(=O)c(C(=O)NCCN4CCCC4)c4n(C)c5ccccc5n4c3n2)CC1` [Compound B-1], the remaining activity at 2.5 µM at Rsk3(h) is 107%; on KDR(h), 95%; on EGFR(L861Q)(h) it was 109%; at FGFR2(h) it was 89%; on JNK1α1(h), 100%. In addition, the “percent residual activity of c-RAF(h)” value with c-RAF(h) turned out to be 96%.

The values are drawn from patent publication US20070117770A1, “Human ribosomal DNA (rDNA) and ribosomal RNA (rRNA) nucleic acids and uses thereof” (Cylene Pharmaceuticals, Inc., priority 2005, published 2007).
